Laboratory results reported in PubChem BioAssay AID1919015 (Molecular Pharmacology Branch, DTP, NCI, 2023).

Test system: OVCAR-5 complex spheroids with HUVEC/MSC, viability, % test/control
Test: Anticancer human tumor OVCAR-5 cell line growth inhibition [AhR];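 further: spheroids exposed to compounds for 7 days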;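 on viability, T/C: 100% = DMSO vehicle control wells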
Details: for IC50: curve of first compound; for viability, T/C: stronger effect = lower value
Outline: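 Spheroids combined tumor cells with HUVEC endothelial cells and human MSCs as stroma. AhR antagonists were paired with standard or investigational drugs, each dosed in half-log steps down from near clinical Cmax, or from 10 microM where Cmax was unknown.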

[1] = second compound 0.1 µM, first compound 0.0316 µM
[2] = second compound 0.1 µM, first compound 0.1 µM
[3] = second compound 0.1 µM, first compound 0.316 µM
[4] = second compound 0.1 µM, first compound 1 µM
[5] = second compound 0.1 µM, first compound 3.16 µM
[6] = second compound 0.1 µM, first compound 10 µM
[7] = second compound 0.316 µM, first compound 0.0316 µM
[8] = second compound 0.316 µM, first compound 0.1 µM
[9] = second compound 0.316 µM, first compound 0.316 µM
[10] = second compound 0.316 µM, first compound 1 µM
[11] = second compound 0.316 µM, first compound 3.16 µM
[12] = second compound 0.316 µM, first compound 10 µM
[13] = second compound 1 µM, first compound 0.0316 µM
[14] = second compound 1 µM, first compound 0.1 µM
[15] = second compound 1 µM, first compound 0.316 µM
[16] = second compound 1 µM, first compound 1 µM
[17] = second compound 1 µM, first compound 3.16 µM
[18] = second compound 1 µM, first compound 10 µM
[19] = second compound 3.16 µM, first compound 0.0316 µM
[20] = second compound 3.16 µM, first compound 0.1 µM
[21] = second compound 3.16 µM, first compound 0.316 µM
[22] = second compound 3.16 µM, first compound 1 µM
[23] = second compound 3.16 µM, first compound 3.16 µM
[24] = second compound 3.16 µM, first compound 10 µM
[25] = second compound 10 µM, first compound 0.0316 µM
[26] = second compound 10 µM, first compound 0.1 µM
[27] = second compound 10 µM, first compound 0.316 µM
[28] = second compound 10 µM, first compound 1 µM
[29] = second compound 10 µM, first compound 3.16 µM
[30] = second compound 10 µM, first compound 10 µM
[31] = second compound 0.1 µM, first compound 0.00316 µM
[32] = second compound 0.1 µM, first compound 0.01 µM
[33] = second compound 0.316 µM, first compound 0.00316 µM
[34] = second compound 0.316 µM, first compound 0.01 µM
[35] = second compound 1 µM, first compound 0.00316 µM
[36] = second compound 1 µM, first compound 0.01 µM
[37] = second compound 3.16 µM, first compound 0.00316 µM
[38] = second compound 3.16 µM, first compound 0.01 µM
[39] = second compound 10 µM, first compound 0.00316 µM
[40] = second compound 10 µM, first compound 0.01 µM

Row | Compound | IC50 (second compound 0.1 µM) [µM] | IC50 (second compound 0.316 µM) [µM] | IC50 (second compound 1 µM) [µM] | IC50 (second compound 3.16 µM) [µM] | IC50 (second compound 10 µM) [µM] | viability, T/C [1] [%] | viability, T/C [2] [%] | viability, T/C [3] [%] | viability, T/C [4] [%] | viability, T/C [7] [%] | viability, T/C [8] [%] | viability, T/C [9] [%] | viability, T/C [10] [%] | viability, T/C [13] [%] | viability, T/C [14] [%] | viability, T/C [15] [%] | viability, T/C [16] [%] | viability, T/C [19] [%] | viability, T/C [20] [%] | viability, T/C [21] [%] | other results
1 | CC(C)c1c(-c2ccccc2)nc2c(C#N)c[nH]n2c1=O + Cc1ccccc1N=Nc1ccc(NC(=O)c2ccnn2C)c(C)c1 | > 10 | > 10 | > 10 | > 10 | > 10 | 104 | 102 | 101 | 101 | 105 | 111 | 106 | 103 | 112 | 109 | 109 | 106 | 112 | 112 | 111 | viability, T/C [5]: 104%; viability, T/C [6]: 106%; viability, T/C [11]: 106%; viability, T/C [12]: 104%; viability, T/C [17]: 106%; viability, T/C [18]: 111%; viability, T/C [22]: 108%; viability, T/C [23]: 111%; viability, T/C [24]: 114%; viability, T/C [25]: 108%; viability, T/C [26]: 110%; viability, T/C [27]: 108%; viability, T/C [28]: 107%; viability, T/C [29]: 104%; viability, T/C [30]: 104%
2 | CC1COCCN1c1cc(-c2ccnn2C)c2ccnc(-c3ccn[nH]3)c2n1 (stereo not given) + Cc1ccccc1N=Nc1ccc(NC(=O)c2ccnn2C)c(C)c1 | 0.244 | 0.253 | 0.284 | 0.269 | 0.272 | 98.5 | 79.9 | 41.4 | 26.3 | 101 | 81.1 | 42.5 | 28.2 | 101 | 87.5 | 45.5 | 30.1 | 105 | 88.6 | 43.4 | viability, T/C [31]: 102%; viability, T/C [32]: 101%; viability, T/C [33]: 104%; viability, T/C [34]: 105%; viability, T/C [35]: 108%; viability, T/C [36]: 110%; viability, T/C [37]: 109%; viability, T/C [38]: 109%; viability, T/C [22]: 32.5%; viability, T/C [39]: 105%; viability, T/C [40]: 106%; viability, T/C [25]: 101%; viability, T/C [26]: 82.2%; viability, T/C [27]: 45%; viability, T/C [28]: 33%
3 | COc1ccc([C@@H](O)c2cc(-c3ncnc4cc(N5CCOCC5)ccc34)c(F)cc2Cl)nn1 + Cc1ccccc1N=Nc1ccc(NC(=O)c2ccnn2C)c(C)c1 | 2.91 | 2.98 | 3.75 | 4.54 | 3.23 | 102 | 101 | 95.5 | 76.3 | 104 | 102 | 97.5 | 76.8 | 109 | 107 | 99.5 | 87.5 | 113 | 106 | 98.9 | viability, T/C [5]: 48.4%; viability, T/C [6]: 24.1%; viability, T/C [11]: 49.1%; viability, T/C [12]: 27.6%; viability, T/C [17]: 53.5%; viability, T/C [18]: 26%; viability, T/C [22]: 85.1%; viability, T/C [23]: 57.6%; viability, T/C [24]: 31.6%; viability, T/C [25]: 103%; viability, T/C [26]: 98.9%; viability, T/C [27]: 96.3%; viability, T/C [28]: 76.7%; viability, T/C [29]: 51.2%; viability, T/C [30]: 22.8%
4 | COc1cc(C2c3cc4c(cc3C(OC3OC5COC(C)OC5C(O)C3O)C3COC(=O)C23)OCO4)cc(OC)c1O (stereo not given) + Cc1cncc(-c2nc(NCCc3c[nH]c4ccccc34)c3ncn(C(C)C)c3n2)c1 | 2.68 | 2.94 | 2.36 | 0.909 | < 0.0316 | 97.2 | 97.1 | 90.8 | 68.8 | 97.1 | 93.3 | 86 | 67.7 | 90 | 91.6 | 79.7 | 62.9 | 79.8 | 80.1 | 67.9 | viability, T/C [5]: 47.8%; viability, T/C [6]: 36.1%; viability, T/C [11]: 49%; viability, T/C [12]: 37.6%; viability, T/C [17]: 46.1%; viability, T/C [18]: 37.4%; viability, T/C [22]: 48.1%; viability, T/C [23]: 37.6%; viability, T/C [24]: 33%; viability, T/C [25]: 9.11%; viability, T/C [26]: 9.43%; viability, T/C [27]: 7.81%; viability, T/C [28]: 4.62%; viability, T/C [29]: 3.56%; viability, T/C [30]: 7.82%
5 | COc1cccc2c1C(=O)c1c(O)c3c(c(O)c1C2=O)CC(O)(C(=O)CO)CC3OC1CC(N)C(O)C(C)O1 (stereo not given) + Cc1cncc(-c2nc(NCCc3c[nH]c4ccccc34)c3ncn(C(C)C)c3n2)c1 | 0.31 | 0.24 | 0.241 | < 0.0316 | < 0.0316 | 63.7 | 54.8 | 49 | 27.9 | 61.8 | 54 | 47.3 | 26.9 | 55.4 | 51.6 | 48.2 | 24.3 | 42.7 | 42.8 | 39.3 | viability, T/C [5]: 1.4%; viability, T/C [6]: 1.85%; viability, T/C [11]: 2.85%; viability, T/C [12]: 1.79%; viability, T/C [17]: 1.27%; viability, T/C [18]: 1.8%; viability, T/C [22]: 19.3%; viability, T/C [23]: 1.16%; viability, T/C [24]: 1.68%; viability, T/C [25]: 5.12%; viability, T/C [26]: 5.58%; viability, T/C [27]: 13.1%; viability, T/C [28]: 4.16%; viability, T/C [29]: 1.37%; viability, T/C [30]: 1.89%
6 | Nc1ncn(C2CC(O)C(CO)O2)c(=O)n1 (stereo not given) + Cc1cncc(-c2nc(NCCc3c[nH]c4ccccc34)c3ncn(C(C)C)c3n2)c1 | > 1 | > 1 | > 1 | > 1 | < 0.00316 | 87.6 | 80.7 | 69 | 62.7 | 90 | 74.8 | 65.5 | 59 | 85.4 | 78.3 | 61.5 | 61.8 | 70.4 | 64 | 59.8 | viability, T/C [31]: 98.3%; viability, T/C [32]: 94.2%; viability, T/C [33]: 93.8%; viability, T/C [34]: 91.7%; viability, T/C [35]: 96.2%; viability, T/C [36]: 85.5%; viability, T/C [37]: 79.8%; viability, T/C [38]: 77.8%; viability, T/C [22]: 51.2%; viability, T/C [39]: 10.4%; viability, T/C [40]: 10.1%; viability, T/C [25]: 8.47%; viability, T/C [26]: 8.64%; viability, T/C [27]: 8.49%; viability, T/C [28]: 11.6%
